Data reported in PubChem BioAssay (NCI).
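96-well plates; 48 h exposure; 5 concentrations. Endpoints by linear interpolation between flanking doses. Not reached: highest tested concentration assigned. Abbreviation: GI50, concentration required for 50% inhibition of growth. TGI is the concentration that stops growth completely.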

Tests used:
Assay in all cases: NCI anticancer screen, dose series, 48 h
RPMI-8226 leukemia = test system: RPMI-8226 leukemia
IGROV1 ovarian = test system: IGROV1 ovarian
A549 NSCLC = test system: A549 NSCLC
RXF 393 renal = test system: RXF 393 renal
786-0 renal = test system: 786-0 renal
HCT-15 colon = test system: HCT-15 colon
SF-295 CNS = test system: SF-295 CNS
SN12C renal = test system: SN12C renal
NCI-H522 lung = test system: NCI-H522 lung
KM12 colon = test system: KM12 colon
ACHN renal = test system: ACHN renal
T-47D breast = test system: T-47D breast
COLO 205 colon = test system: COLO 205 colon
CAKI-1 renal = test system: CAKI-1 renal
HOP-92 NSCLC = test system: HOP-92 NSCLC
SK-MEL-28 melanoma = test system: SK-MEL-28 melanoma
NCI-H23 lung = test system: NCI-H23 lung
DU-145 prostate = test system: DU-145 prostate
EKVX NSCLC = test system: EKVX NSCLC
HCT-116 colon = test system: HCT-116 colon
SNB-75 CNS = test system: SNB-75 CNS
LOX IMVI melanoma = test system: LOX IMVI melanoma
SF-268 CNS = test system: SF-268 CNS
HS 578T breast = test system: HS 578T breast
MCF7 breast = test system: MCF7 breast
MDA-MB-435 = test system: MDA-MB-435
MOLT-4 leukemia = test system: MOLT-4 leukemia
SR leukemia = test system: SR leukemia
HT29 colon = test system: HT29 colon

`O=C(Nc1ccccc1C(=O)N/N=C(\c1ccccc1)c1ccccn1)c1ccccc1` was tested, and the GI50 (RPMI-8226 leukemia) was 823 nM, the TGI (RPMI-8226 leukemia) was > 100000 nM and the GI50 (IGROV1 ovarian) was 502 nM. The TGI (IGROV1 ovarian) was > 100000 nM, the GI50 (A549 NSCLC) was 987 nM and the TGI (A549 NSCLC) was > 100000 nM. The GI50 (RXF 393 renal) was 1930 nM, the TGI (RXF 393 renal) was > 82400 nM and the GI50 (786-0 renal) was 399 nM. The TGI (786-0 renal) was > 100000 nM, the GI50 (HCT-15 colon) was 112 nM and the TGI (HCT-15 colon) was > 100000 nM. For the same compound, the GI50 (SF-295 CNS) was 427 nM, the TGI (SF-295 CNS) was > 67000 nM and the GI50 (SN12C renal) was 623 nM. For the same compound, the TGI (SN12C renal) was > 100000 nM, the GI50 (NCI-H522 lung) was 1270 nM and the TGI (NCI-H522 lung) was > 100000 nM. For the same compound, the GI50 (KM12 colon) was 581 nM, the TGI (KM12 colon) was > 100000 nM and the GI50 (ACHN renal) was 418 nM. The TGI (ACHN renal) was > 100000 nM, the GI50 (T-47D breast) was 666 nM and the TGI (T-47D breast) was > 100000 nM. The GI50 (COLO 205 colon) was 427 nM, the TGI (COLO 205 colon) was > 100000 nM and the GI50 (CAKI-1 renal) was 397 nM. For the same compound, the TGI (CAKI-1 renal) was > 100000 nM, the GI50 (HOP-92 NSCLC) was 552 nM and the TGI (HOP-92 NSCLC) was 47800 nM. The GI50 (SK-MEL-28 melanoma) was 1230 nM, the TGI (SK-MEL-28 melanoma) was > 100000 nM and the GI50 (NCI-H23 lung) was 1870 nM. The TGI (NCI-H23 lung) was > 100000 nM, the GI50 (DU-145 prostate) was 999 nM and the TGI (DU-145 prostate) was > 100000 nM. For the same compound, the GI50 (EKVX NSCLC) was 339 nM, the TGI (EKVX NSCLC) was > 100000 nM and the GI50 (HCT-116 colon) was 405 nM. For the same compound, the TGI (HCT-116 colon) was > 100000 nM, the GI50 (SNB-75 CNS) was 1070 nM and the TGI (SNB-75 CNS) was > 100000 nM. The GI50 (LOX IMVI melanoma) was 505 nM, the TGI (LOX IMVI melanoma) was > 100000 nM and the GI50 (SF-268 CNS) was 609 nM. For the same compound, the TGI (SF-268 CNS) was > 100000 nM, the GI50 (HS 578T breast) was > 100000 nM and the TGI (HS 578T breast) was > 100000 nM. The GI50 (MCF7 breast) was 556 nM, the TGI (MCF7 breast) was > 100000 nM and the GI50 (MDA-MB-435) was 1390 nM. The TGI (MDA-MB-435) was > 100000 nM, the GI50 (MOLT-4 leukemia) was 460 nM and the TGI (MOLT-4 leukemia) was > 100000 nM. The GI50 (SR leukemia) was 507 nM, the TGI (SR leukemia) was > 100000 nM and the GI50 (HT29 colon) was 797 nM. The TGI (HT29 colon) was > 100000 nM.
